# Source: patent US8591892B2, “FTY720 increases CD74 expression and sensitizes cancer cells to anti-CD74 antibody-mediated cell death” (The Ohio State University, priority 2011, dated 2013)
# Assays:
# [1] = system: four MCL cell lines; experiment: Cell viability by annexin-V/PI staining and flow cytometry, four lines together; assay type: cell-based, human; conditions: Jeko-1, Z-138 and UPN-1 cell lines, 24 hours
# Experimental: FIG. 4. FTY720 sensitizes MCL cell lines and primary patient tumor cells to milatuzumab-mediated cytotoxicity. (A) Four MCL cell lines and primary cells from 6 patients were treated with FTY720 and/or milatuzumab plus cross-linking antibodies at the indicated concentrations. (B) Patient characteristics. (C) Individual patient responses. (D) Representative histograms summarizing patient responses. Cell death was determined by annexin V/PI staining and flow cytometry at 24 hours. Data are shown as the percentage of annexin V−/PI− cells (live cells) and are normalized to untreated controls.
# To assess lysosomal volume, FTY720 treated cells were incubated with LYSOTRACKER™ green DND-26. To assess lysosomal membrane permeability, FTY720 treated cells were incubated with acridine orange (MOLECULAR PROBES; INVITROGEN). For analysis of cell viability, MCL cell lines (0.5×10^6/ml) and primary cells (1×10^6/ml) were treated with FTY720, milatuzumab, and the combination of both. […] Cell viability was measured at 24 hours by dual staining with annexin-V FITC and propidium iodide (PI). A total of 10,000 events were collected and analyzed using WinMDI.
# The in vitro survival of four MCL cell lines treated with FTY720, milatuzumab in the presence of a cross-linking antibody, and the combination of FTY720 and milatuzumab was determined at 24 hours by annexin-V/PI staining and flow cytometry. […]
# [2] = system: Jeko cells engrafted in SCID mice; experiment: Preclinical model of human MCL in SCID mice, survival; assay type: in vivo, mouse; conditions: n=10/group, from day 15; FTY720 5 mg/kg i.p. daily 2 weeks; antibodies 15 mg/kg i.p. every three days
# Experimental: Evaluation of in vivo therapeutic activity of FTY720 and milatuzumab in the preclinical MCL model. SCID mice were injected i.v. with 40×10^6 JeKo cells and observed daily for signs of tumor burden.
# Six to eight-week old female SCID mice (cb17 scid/scid) were purchased from Taconic Farms (Hudson, N.Y.) and maintained in pathogen-free, isolation cages. All animals were depleted of murine NK cells with intra-peritoneal (i.p.) injections of 0.2 mg of rat anti-mouse interleukin-2 receptor β monoclonal antibody (TMβ1) 1 day prior to engraftment with human tumor cell lines and then every week. Forty-eight hours post intravenous injection of 40×10^6 Jeko cells via tail vein, 50 mice were randomly distributed into 10 cages. Animals in groups of ten were treated starting at day 15 after engraftment. […] The third group was treated with FTY720 (5 mg/kg) every day for 2 weeks via i.p. The fourth group received milatuzumab (15 mg/kg) every three days, via i.p. injection. The fifth group received the combination of FTY720 and milatuzumab. Animals were monitored daily for signs of tumor burden, including hind limb paralysis, respiratory distress, weight loss, ruffled coat, and distended abdomen. Body weight was measured weekly for the first 3 weeks and then daily. […]
# [3] = system: U118; experiment: Flow cytometry of CD74, HLA-DR, CEACAM5 with directly labeled MAbs, with and without IFN-γ; assay type: cell-based
# Experimental: (§1) Expression of CD74, HLA-DR, and carcinoembryonic antigen (CEACAM5) was determined in untreated cells and cells exposed to 200 U of IFN-γ for 48 h by flow cytometry. Cells were stained with directly labeled MAbs in comparison to a directly labeled human IgG control. Antibodies were labeled using ALEXA FLUOR® 488 (Invitrogen, Carlsbad, Calif.). For determination of cytoplasmic antigen expression, cells were permeabilized prior to staining using the BD CYTOFIX/CYTOPERM™ kit (BD Biosciences, San Jose, Calif.).
# [4] = system: Panc-1; experiment: as above; assay type: cell-based
# Experimental: as §1
# [5] = system: Moser; experiment: as above; assay type: cell-based
# Experimental: as §1
# [6] = system: TU118; experiment: as above; assay type: cell-based
# Experimental: as §1
# [7] = system: KMS11; experiment: as above; assay type: cell-based
# Experimental: as §1
# [8] = system: HT29; experiment: as above; assay type: cell-based
# Experimental: as §1
# [9] = system: Lovo; experiment: as above; assay type: cell-based
# Experimental: as §1
# [10] = system: Capan-1; experiment: as above; assay type: cell-based
# Experimental: as §1
# [11] = system: BxPC-3; experiment: as above; assay type: cell-based
# Experimental: as §1
# [12] = system: U87; experiment: as above; assay type: cell-based
# Experimental: as §1
# [13] = system: LS174T; experiment: as above; assay type: cell-based
# Experimental: as §1
# [14] = system: RL; experiment: as above; assay type: cell-based
# Experimental: as §1
# [15] = system: Aspc-1; experiment: as above; assay type: cell-based
# Experimental: as §1
# [16] = system: FSCCL; experiment: as above; assay type: cell-based
# Experimental: as §1
# [17] = system: CAG; experiment: as above; assay type: cell-based
# Experimental: as §1
# [18] = single agents, same dosage and delivery schedule; cited from earlier work
substance,measurement,setting,value
milatuzumab: fully humanized monoclonal antibody specific for CD74,activity as single agents,[1],only modest activity
same,median survival,[2],33.5 days
same,% change of cell surface expression with IFNγ,[3]; U118,160.9%
same,% change of cytoplasmic expression with IFNγ,[3]; U118,428.2%
same,Cell surface expression (staining with directly labeled MAb),"[3]; U118 + IFNγ 200 U, 48 h",18.3
same,Cell surface expression (staining with directly labeled MAb),"[3]; U118, without IFN-γ",7.0
same,% change of cell surface expression with IFNγ,[4]; Panc-1,9.4%
same,% change of cytoplasmic expression with IFNγ,[4]; Panc-1,208.7%
same,Cell surface expression (staining with directly labeled MAb),"[4]; Panc-1 + IFNγ 200 U, 48 h",4.9
same,Cell surface expression (staining with directly labeled MAb),"[4]; Panc-1, without IFN-γ",4.5
same,% change of cell surface expression with IFNγ,[5]; Moser,16.3%
same,% change of cytoplasmic expression with IFNγ,[5]; Moser,86.1%
same,Cell surface expression (staining with directly labeled MAb),"[5]; Moser + IFNγ 200 U, 48 h",4.8
same,Cell surface expression (staining with directly labeled MAb),"[5]; Moser, without IFN-γ",4.1
same,% change of cell surface expression with IFNγ,[6]; TU118,167.8%
same,% change of cytoplasmic expression with IFNγ,[6]; TU118,374.6%
same,Cell surface expression (staining with directly labeled MAb),"[6]; TU118 + IFNγ 200 U, 48 h",19.2
same,Cell surface expression (staining with directly labeled MAb),"[6]; TU118, without IFN-γ",7.17
same,% change of cell surface expression with IFNγ,[7]; KMS11,14.0%
same,% change of cytoplasmic expression with IFNγ,[7]; KMS11,−1.9%
same,Cell surface expression (staining with directly labeled MAb),"[7]; KMS11 + IFNγ 200 U, 48 h",5.1
same,Cell surface expression (staining with directly labeled MAb),"[7]; KMS11, without IFN-γ",4.4
same,% change of cell surface expression with IFNγ,[8]; HT29,141.1%
same,% change of cytoplasmic expression with IFNγ,[8]; HT29,1766.6%
same,Cell surface expression (staining with directly labeled MAb),"[8]; HT29 + IFNγ 200 U, 48 h",8.3
same,Cell surface expression (staining with directly labeled MAb),"[8]; HT29, without IFN-γ",3.4
same,% change of cell surface expression with IFNγ,[9]; Lovo,173.7%
same,% change of cytoplasmic expression with IFNγ,[9]; Lovo,756.0%
same,Cell surface expression (staining with directly labeled MAb),"[9]; Lovo + IFNγ 200 U, 48 h",9.2
same,Cell surface expression (staining with directly labeled MAb),"[9]; Lovo, without IFN-γ",3.4
same,Cell surface expression (staining with directly labeled MAb),"[10]; Capan + IFNγ 200 U, 48 h",11.1
same,% change of cell surface expression with IFNγ,[10]; Capan-1,152.4%
same,% change of cytoplasmic expression with IFNγ,[10]; Capan-1,561.2%
same,Cell surface expression (staining with directly labeled MAb),"[10]; Capan-1, without IFN-γ",4.4
same,% change of cell surface expression with IFNγ,[11]; BxPC-3,142.2%
same,% change of cytoplasmic expression with IFNγ,[11]; BxPC-3,1763.5%
same,Cell surface expression (staining with directly labeled MAb),"[11]; BxPC-3 + IFNγ 200 U, 48 h",6.2
same,Cell surface expression (staining with directly labeled MAb),"[11]; BxPC-3, without IFN-γ",2.6
same,% change of cell surface expression with IFNγ,[12]; U87,75.6%
same,% change of cytoplasmic expression with IFNγ,[12]; U87,158.8%
same,Cell surface expression (staining with directly labeled MAb),"[12]; U87 + IFNγ 200 U, 48 h",9.5
same,Cell surface expression (staining with directly labeled MAb),"[12]; U87, without IFN-γ",5.4
same,% change of cell surface expression with IFNγ,[13]; LS174T,−11.3%
same,% change of cytoplasmic expression with IFNγ,[13]; LS174T,112.7%
same,Cell surface expression (staining with directly labeled MAb),"[13]; LS174T + IFNγ 200 U, 48 h",5.2
same,Cell surface expression (staining with directly labeled MAb),"[13]; LS174T, without IFN-γ",5.9
same,% change of cell surface expression with IFNγ,[14]; RL,23.8%
same,% change of cytoplasmic expression with IFNγ,[14]; RL,3.7%
same,Cell surface expression (staining with directly labeled MAb),"[14]; RL + IFNγ 200 U, 48 h",25.0
same,Cell surface expression (staining with directly labeled MAb),"[14]; RL, without IFN-γ",20.2
same,% change of cell surface expression with IFNγ,[15]; Aspc-1,121.3%
same,% change of cytoplasmic expression with IFNγ,[15]; Aspc-1,1451.5%
same,Cell surface expression (staining with directly labeled MAb),"[15]; Aspc-1 + IFNγ 200 U, 48 h",7.3
same,Cell surface expression (staining with directly labeled MAb),"[15]; Aspc-1, without IFN-γ",3.3
same,% change of cell surface expression with IFNγ,[16]; FSCCL,32.8%
same,% change of cytoplasmic expression with IFNγ,[16]; FSCCL,58.5%
same,Cell surface expression (staining with directly labeled MAb),"[16]; FSCCL + IFNγ 200 U, 48 h",19.0
same,Cell surface expression (staining with directly labeled MAb),"[16]; FSCCL, without IFN-γ",14.3
same,% change of cell surface expression with IFNγ,[17]; CAG,−5.4%
same,% change of cytoplasmic expression with IFNγ,[17]; CAG,19.8%
same,Cell surface expression (staining with directly labeled MAb),"[17]; CAG + IFNγ 200 U, 48 h",39.2
same,Cell surface expression (staining with directly labeled MAb),"[17]; CAG, without IFN-γ",41.5
same,weight loss or other side effects,[18],did not cause any observed weight loss or other significant side effects
